Source: patent US11021521B2, “Pore-modified gram-negative bacteria and uses thereof” (priority 2015, dated 2021)
Converted amounts (≈) assume the structure as drawn. Where two headings read alike, the source gives them in different places.

Legend:
[1] = tested on: P. aeruginosa PaΔ3-LAC-EcPore (efflux-deficient, hyperporinated); assay: microbe, parasite or virus in culture; assay type: cell-based; details: PaΔ3-LAC-EcPore, at least three independent measurements
[2] = tested on: B. thailandensis Bt-RHA (wild type, empty cassette); assay: microbe, parasite or virus in culture; assay type: cell-based
[3] = tested on: B. thailandensis BtΔ2-RHA-BtPore (efflux-deficient, hyperporinated); assay: microbe, parasite or virus in culture; assay type: cell-based
[4] = tested on: P. aeruginosa PAO1-LAC (wild type, empty cassette); assay: microbe, parasite or virus in culture; assay type: cell-based; details: at least three independent measurements
[5] = tested on: P. aeruginosa PaΔ3-LAC (efflux-deficient); assay: microbe, parasite or virus in culture; assay type: cell-based; details: at least three independent measurements
[6] = tested on: B. thailandensis BtΔ2-RHA (efflux-deficient); assay: microbe, parasite or virus in culture; assay type: cell-based
[7] = tested on: B. thailandensis Bt-RHA-BtPore (hyperporinated); assay: microbe, parasite or virus in culture; assay type: cell-based
[8] = tested on: B. cepacia Bc-RHA-BtPore (hyperporinated); assay: microbe, parasite or virus in culture; assay type: cell-based; details: Bc-RHA-BtPore
[9] = tested on: A. baumannii Ab-ARA (wild type, empty cassette); assay: microbe, parasite or virus in culture; assay type: cell-based; details: at least three independent measurements
[10] = tested on: A. baumannii AbΔ3-ARA-EcPore (efflux-deficient, hyperporinated); assay: microbe, parasite or virus in culture; assay type: cell-based; details: AbΔ3-ARA-EcPore, at least three independent measurements
[11] = tested on: B. cepacia Bc-RHA (wild type, empty cassette); assay: microbe, parasite or virus in culture; assay type: cell-based
[12] = tested on: A. baumannii AbΔ3-ARA (efflux-deficient); assay: microbe, parasite or virus in culture; assay type: cell-based; details: AbΔ3-ARA, at least three independent measurements
[13] = tested on: A. baumannii Ab-ARA-EcPore (hyperporinated); assay: microbe, parasite or virus in culture; assay type: cell-based; details: Ab-ARA-EcPore, at least three independent measurements
[14] = tested on: P. aeruginosa PAO1-LAC-EcPore (hyperporinated); assay: microbe, parasite or virus in culture; assay type: cell-based; details: PAO1-LAC-EcPore, at least three independent measurements
[15] = tested on: P. aeruginosa cells (PAO1-LAC and derivatives); assay: Fluorescent probe uptake assay, P. aeruginosa strains; details: PΔ3-LAC-EcPore vs PAO1-LAC
[16] = tested on: A. baumannii cells (Ab-ARA and derivatives); assay: Fluorescent probe uptake assay, A. baumannii strains; details: AbΔ3-ARA vs Ab-ARA, fluorescence
[17] = tested on: B. thailandensis cells (Bt-RHA and derivatives)
[18] = Pseudomonas aeruginosa, read-out: MIC
[19] = Burkholderia cepacia, read-out: MIC
[20] = Acinetobacter baumannii, read-out: MIC

| Molecule | MIC [1] [µg/mL] | MIC [2] [µg/mL] | MIC [3] [µg/mL] | MIC [4] [µg/mL] | MIC [5] [µg/mL] | MIC [6] [µg/mL] | MIC [7] [µg/mL] | MIC [8] [µg/mL] | MIC [9] [µg/mL] | MIC [10] [µg/mL] | MIC ([2]; Burkholderia thailandensis) [µg/mL] | MIC ([3]; Burkholderia thailandensis) [µg/mL] | MIC ([6]; Burkholderia thailandensis) [µg/mL] | MIC [8, 19] [µg/mL] | MIC [9, 20] [µg/mL] | MIC [10, 20] [µg/mL] | MIC [11, 19] [µg/mL] | MIC [12, 20] [µg/mL] | MIC [13, 20] [µg/mL] | MIC [14, 18] [µg/mL] | further results |
| --- | --- | --- | --- | --- | --- | --- | --- | --- | --- | --- | --- | --- | --- | --- | --- | --- | --- | --- | --- | --- | --- |
| Polymyxin B | 1.5 | >1024 | 128 | 1.5 | 1.5 | >1024 | >1024 | 512 | 0.25 | 0.125 | – | – | – | – | – | – | – | – | – | – | MIC [11]: >1024 µg/mL; MIC [12]: 0.125 µg/mL; MIC [13]: 0.25 µg/mL; MIC [14]: 1.5 µg/mL |
| CN[C@H](CC(C)C)C(=O)N[C@H]1C(=O)N[C@@H](CC(N)=O)C(=O)N[C@H]2C(=O)N[C@H]3C(=O)N[C@H](C(=O)N[C@H](C(=O)O)c4cc(O)cc(O)c4-c4cc3ccc4O)[C@H](O)c3ccc(c(Cl)c3)Oc3cc2cc(c3O[C@@H]2O[C@H](CO)[C@@H](O)[C@H](O)[C@H]2O[C@H]2C[C@](C)(N)[C@H](O)[C@H](C)O2)Oc2ccc(cc2Cl)[C@H]1O [Vancomycin] | – | – | – | – | – | – | 256 to 512 | – | – | – | > 1020 | 4 to 8 (≈ 2.76 to 5.52 µM) | > 1020 | 8 (≈ 5.52 µM) | 1020 (≈ 707 µM) | 128 (≈ 88.3 µM) | > 1020 | 1020 (≈ 707 µM) | 128 (≈ 88.3 µM) | 128 (≈ 88.3 µM) | MIC [1, 18]: 64 µg/mL (≈ 44.2 µM); MIC [4, 18]: 1020 µg/mL (≈ 707 µM); MIC [5, 18]: 1020 µg/mL (≈ 707 µM) |
| CN(C)[C@@H]1C(O)=C(C(N)=O)C(=O)[C@@]2(O)C(O)=C3C(=O)c4c(O)cccc4[C@@](C)(O)[C@H]3C[C@@H]12 [Tetracycline] | – | – | – | – | – | – | – | – | – | – | 2 (≈ 4.5 µM) | 0.06 (≈ 0.135 µM) | 0.125 (≈ 0.281 µM) | 8 (≈ 18 µM) | 0.125 (≈ 0.281 µM) | 0.004 (≈ 0.009 µM) | > 8 | 0.008 (≈ 0.018 µM) | 0.031 (≈ 0.0698 µM) | 0.5 (≈ 1.13 µM) | MIC [1, 18]: 0.125 µg/mL (≈ 0.281 µM); MIC [5, 18]: 2 µg/mL (≈ 4.5 µM); MIC ([7]; Burkholderia thailandensis): 2 µg/mL (≈ 4.5 µM) |
| NCC[C@H](O)C(=O)N[C@@H]1C[C@H](N)[C@@H](O[C@H]2O[C@H](CN)[C@@H](O)[C@H](O)[C@H]2O)[C@H](O)[C@H]1O[C@H]1O[C@H](CO)[C@@H](O)[C@H](N)[C@H]1O [Amikacin] | – | – | – | – | – | – | – | – | – | – | 256 (≈ 437 µM) | 2 (≈ 3.42 µM) | 4 (≈ 6.83 µM) | 8 (≈ 13.7 µM) | 8 (≈ 13.7 µM) | 4 (≈ 6.83 µM) | 128 (≈ 219 µM) | 4 (≈ 6.83 µM) | 4 (≈ 6.83 µM) | 2 (≈ 3.42 µM) | MIC [4, 18]: 2 µg/mL (≈ 3.42 µM); MIC ([7]; Burkholderia thailandensis): 256 µg/mL (≈ 437 µM) |
| c1ccc(Nc2cccc3ccccc23)cc1 [NPN, N-phenyl-1-naphthylamine] | – | – | – | – | – | – | – | – | – | – | – | – | – | – | – | – | – | – | – | – | Probe levels in efflux-deficient hyperporinated cells vs parent [15]: only slightly higher than in PAO1-LAC cells; Change of intracellular accumulation of probe by inactivation of efflux [16]: higher levels of NPN accumulation than in hyperporinated cells; Change of intracellular accumulation of probe by inactivation of efflux [17]: higher levels of NPN accumulation than in hyperporinated cells |
| Tobramycin [Tobramycin + Mg^2+] | 0.5 | 64 | 1 | 2 | 0.5 | 1 | 64 | 4 | 4 | 2 | – | – | – | – | – | – | – | – | – | – | MIC [11]: 32 to 64 µg/mL; MIC [12]: 4 µg/mL; MIC [13]: 2 µg/mL; MIC [14]: 1 µg/mL |
